According to article PMC11239673, “Structural basis for the bi-specificity of USP25 and USP28 inhibitors” (EMBO Reports, 2024):
Where “and” joins values, the source holds several entries; their conditions need not be identical. Equal entries are not always repeated. Where two headings read alike, the source gives them in different places.

How the values were obtained:
[1] = target: T1, USP28Δtip E366Q (Homo sapiens, UniProt Q96RU2, E366Q/INS458SGSG); assay: Ub-Rho110 dose–response assay, USP28Δtip E366Q; assay type: biochemical; details: for IC50: USP28 - E366Q
T1 sequence (Q96RU2 with tags, fused parts or gaps E366Q/INS458SGSG): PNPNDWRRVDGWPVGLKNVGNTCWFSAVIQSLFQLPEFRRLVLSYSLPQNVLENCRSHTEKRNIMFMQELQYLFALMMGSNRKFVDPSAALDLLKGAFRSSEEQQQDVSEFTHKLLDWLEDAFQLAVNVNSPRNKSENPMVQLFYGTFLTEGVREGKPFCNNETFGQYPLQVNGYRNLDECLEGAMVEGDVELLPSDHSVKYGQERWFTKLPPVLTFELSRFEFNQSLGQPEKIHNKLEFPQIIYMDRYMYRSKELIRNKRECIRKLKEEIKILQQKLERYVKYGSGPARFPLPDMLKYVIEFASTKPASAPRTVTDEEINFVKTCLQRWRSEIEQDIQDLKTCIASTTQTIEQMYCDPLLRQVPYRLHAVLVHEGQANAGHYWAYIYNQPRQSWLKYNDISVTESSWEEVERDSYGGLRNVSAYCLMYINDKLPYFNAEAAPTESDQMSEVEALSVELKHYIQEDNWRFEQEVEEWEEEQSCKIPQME

[2] = target: T2, USP25fl (Homo sapiens, UniProt Q9UHP3); assay: SEC-MALS analysis of the oligomeric state of USP25fl after inhibitor incubation; details: for MW [kDa]: SEC-MALS molar mass of USP25-fl
T2 sequence (Q9UHP3 1-1055): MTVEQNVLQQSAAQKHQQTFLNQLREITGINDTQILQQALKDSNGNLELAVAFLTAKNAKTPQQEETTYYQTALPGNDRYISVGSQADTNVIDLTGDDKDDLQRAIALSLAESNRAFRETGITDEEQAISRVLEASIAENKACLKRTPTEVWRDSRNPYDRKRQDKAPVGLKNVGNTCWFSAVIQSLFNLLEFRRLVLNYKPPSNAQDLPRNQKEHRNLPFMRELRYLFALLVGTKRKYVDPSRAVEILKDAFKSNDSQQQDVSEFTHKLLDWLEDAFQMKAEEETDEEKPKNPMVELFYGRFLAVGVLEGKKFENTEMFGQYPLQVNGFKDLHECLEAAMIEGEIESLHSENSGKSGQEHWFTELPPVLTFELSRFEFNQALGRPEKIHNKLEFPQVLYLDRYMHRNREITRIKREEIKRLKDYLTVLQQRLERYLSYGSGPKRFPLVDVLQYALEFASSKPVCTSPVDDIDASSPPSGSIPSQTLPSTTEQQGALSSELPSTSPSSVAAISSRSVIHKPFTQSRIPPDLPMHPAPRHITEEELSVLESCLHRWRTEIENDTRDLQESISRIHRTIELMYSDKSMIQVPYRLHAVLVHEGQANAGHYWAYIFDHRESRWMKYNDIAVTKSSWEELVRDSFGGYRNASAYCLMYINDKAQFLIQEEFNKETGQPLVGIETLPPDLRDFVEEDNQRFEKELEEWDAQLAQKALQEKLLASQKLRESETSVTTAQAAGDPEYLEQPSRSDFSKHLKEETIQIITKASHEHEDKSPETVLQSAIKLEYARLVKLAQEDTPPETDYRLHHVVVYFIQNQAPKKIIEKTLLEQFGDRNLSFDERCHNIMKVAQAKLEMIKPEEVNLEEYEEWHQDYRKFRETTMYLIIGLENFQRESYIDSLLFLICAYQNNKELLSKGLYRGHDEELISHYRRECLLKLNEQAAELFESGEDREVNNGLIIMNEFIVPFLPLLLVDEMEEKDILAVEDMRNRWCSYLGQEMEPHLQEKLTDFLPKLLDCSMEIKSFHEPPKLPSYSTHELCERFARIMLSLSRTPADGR

[3] = target: T3, USP28Δtip WT (Homo sapiens, UniProt Q96RU2, INS458SGSG); assay: Ub-Rho110 dose–response assay, USP28Δtip wt; assay type: biochemical
T3 sequence (Q96RU2 with tags, fused parts or gaps INS458SGSG): T1 sequence (Q96RU2 with tags, fused parts or gaps E366Q/INS458SGSG)

[4] = target: T4, USP28Δtip E366A (Homo sapiens, UniProt Q96RU2, E366A/INS458SGSG); assay: Ub-Rho110 dose–response assay, USP28Δtip E366A; assay type: biochemical; details: for IC50: USP28 - E366A
T4 sequence (Q96RU2 with tags, fused parts or gaps E366A/INS458SGSG): T1 sequence (Q96RU2 with tags, fused parts or gaps E366Q/INS458SGSG)

[5] = target: T5, USP25Δtip E373Q (Homo sapiens, UniProt Q9UHP3, DEL465-537/E373Q/INS464GSGSGS); assay: Ub-Rho110 dose–response assay, USP25Δtip E373Q; assay type: biochemical
T5 construct: 6xHis or thioredoxin-6xHis (N, cleaved yes); made in house; host or cells: E. coli BL21star (DE3)
T5 sequence (Q9UHP3 with tags, fused parts or gaps E373Q/DEL465-477/P478G/DEL482-535/A536G/P537S limits assumed): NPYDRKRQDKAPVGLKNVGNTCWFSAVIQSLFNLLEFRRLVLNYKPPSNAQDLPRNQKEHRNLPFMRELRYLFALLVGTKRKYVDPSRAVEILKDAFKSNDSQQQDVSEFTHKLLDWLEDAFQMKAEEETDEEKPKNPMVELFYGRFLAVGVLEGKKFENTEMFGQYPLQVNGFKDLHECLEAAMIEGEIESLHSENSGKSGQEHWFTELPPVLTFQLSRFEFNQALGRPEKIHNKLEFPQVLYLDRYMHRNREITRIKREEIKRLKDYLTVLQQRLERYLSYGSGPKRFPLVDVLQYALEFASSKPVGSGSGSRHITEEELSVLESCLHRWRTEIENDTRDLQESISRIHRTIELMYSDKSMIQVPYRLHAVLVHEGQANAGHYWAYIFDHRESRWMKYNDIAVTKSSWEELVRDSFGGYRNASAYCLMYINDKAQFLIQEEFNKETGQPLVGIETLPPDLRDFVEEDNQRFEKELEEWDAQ

[6] = mean of replicates, read-out: IC50, mean and SD
[7] = single replicates, read-out: IC50 of each replicate curve (unlabelled line above mean and SD)
[8] = read-out: relative inhibition [%] - USP28 - E366Q
[9] = 20 µM USP25, 60 µM inhibitor, mean of experiments
[10] = 20 µM USP25, 60 µM inhibitor, single experiments
[11] = read-out: relative inhibition [%] - USP28 - WT

`Cc1ccc2c(N)c(C(=O)NC3CCc4cc(N5CC6CCC(C5)N6)ccc4C3)sc2n1` (stereo not shown) [FT206] was tested, and the “t-test vs. USP28 WT control - E366Q” value [1] was 3.570E-04, the IC50 [1, 6] was 17.2 µM and the IC50 [1, 7] was 21.3 µM and 17.6 µM and 14.7 µM and 24.4 µM and 11.5 µM and 13.7 µM. For the same compound, the inhibition at 11.11 µM [1, 8] was 34.7%, the inhibition at 33.33 µM [1, 8] was 57.1% and the inhibition at 100 µM [1, 8] was 78.7%. For the same compound, the “avg. Mol mass (10.5-14.5 ml), mean” value ([2]; 20 µM USP25, 60 µM inhibitor, mean of 4 experiments) was 298.950, the “dimer (fraction), mean” value [2, 9] was 0.777 and the “tetramer (fraction), mean” value [2, 9] was 0.223. For the same compound, the “avg. Mol mass (10.5-14.5 ml)” value [2, 10] was 298.000 and 299.300 and 295.500 and 303.000, the “dimer (fraction)” value [2, 10] was 0.781 and 0.775 and 0.791 and 0.760 and the “tetramer (fraction)” value [2, 10] was 0.219 and 0.225 and 0.209 and 0.240. For the same compound, the “% dimer” value ([2]; 20 µM USP25fl, 60 µM inhibitor, 45 min, average of ≥3 experiments ± SD, DMSO control 26.2 ± 1.5) was 77.7 ± 1.1%, the “% tetramer” value ([2]; 20 µM USP25fl, 60 µM inhibitor, 45 min, average of ≥3 experiments ± SD, DMSO control 73.8 ± 1.5) was 22.3 ± 1.1% and the “Ø Mw” value ([2]; 20 µM USP25fl, 60 µM inhibitor, 45 min, average of ≥3 experiments ± SD, DMSO control 424.7 ± 3.8) was 299.0 ± 2.7 kDa. The “MW [kDa]” value ([2]; 10 µM USP25-fl + 5 µM inhibitor, elution volume V [mL] in the cell to the left) was 638.16 kDa and 634.82 kDa and 630.15 kDa and 628.44 kDa, the “MW [kDa]” value ([2]; 10 µM USP25-fl + 10 µM inhibitor, elution volume V [mL] in the cell to the left) was 647.07 kDa and 645.88 kDa and 640.88 kDa and 638.88 kDa and the “MW [kDa]” value ([2]; 10 µM USP25-fl + 20 µM inhibitor, elution volume V [mL] in the cell to the left) was 747.51 kDa and 739.67 kDa and 732.41 kDa and 732.02 kDa. The dRI ([2]; SEC-MALS trace, 10 µM USP25-fl + 20 µM inhibitor, elution volume V [mL] in the cell to the left) was 3.84E-07 and 3.46E-07 and 3.10E-07 and 2.78E-07, the IC50 ([3]; USP28 - WT, single replicates, read-out: IC50 of each replicate curve (unlabelled line above mean and SD)) was 0.184 µM and 0.209 µM and 0.213 µM and 0.0889 µM and 0.0911 µM and 0.101 µM and the IC50 ([3]; USP28Δtip 20 nM, Ub-Rho110 250 nM, 15 min preincubation, average ± SD, n ≥ 5, read-out: IC50, USP28 variants, WT) was 0.15 ± 0.06 µM. It also gave an inhibition at 11.11 µM [3, 11] of 98.6%, an inhibition at 33.33 µM [3, 11] of 99.3% and an inhibition at 100 µM [3, 11] of 99.6%. The inhibition at […] [3, 11] was 97.5% and 91.4% and 73.1%, the “t-test vs. USP28 WT control - E366A” value [4] was 4.894E-04 and the IC50 [4, 6] was 17.3 µM. The IC50 [4, 7] was 14.5 µM and 15.5 µM and 12.1 µM and 14.2 µM and 25.7 µM and 21.9 µM, the inhibition at 100 µM ([4]; read-out: relative inhibition [%] - USP28 - E366A) was 64.6% and the “t-test vs. USP25 WT control - E373Q” value ([5]; p value, inhibitor IC50 on USP25 E373Q compared with USP25 WT) was 8.243E-06. It also gave an inhibition at 100 µM ([5]; read-out: relative inhibition [%] - USP25 - E373Q, inhibitor 100.00 µM, single replicates) of 48.3%.
